# Marks after values point to notes of the source that are not given here.
# Experiments:
# [1] = Precipitation test of copper sources with two-fold molar excess of phytic acid, soluble Cu by FAAS; type: physicochemical; conditions: one day at ambient temperature
# Description: The following 3 concentrations of the final metal concentration were tested, i.e. high (H) at 25 mmol/kg, medium (M) at 5 mmol/kg, and low (L) at 0.5 mmol/kg. For each concentration and pH a separate phytic acid stock solution was prepared by diluting the calculated amount of phytic acid with de-mineralized water, setting the pH with diluted NH4OH solutions, and filling up with demineralized water up to the calculated amount. […] The pH was adjusted to 4.97 with 0.5 M H2SO4. Then an equal number of 0.0125 mol/kg solutions were prepared by diluting the above solutions with demineralized water. […] On all 4 zinc-containing and 3 copper-containing solutions in total 6 precipitation tests were carried out, i.e. at levels H, M, and L and for each level at pH=4 and at pH=6. These tests were marked H4, H6, M4, M6, L4, and L6, respectively. In total 42 samples were obtained in this way. After standing for one day the precipitate was removed and the mother liquor was analyzed for its zinc or copper content by FAAS (Flame Atomic Absorption Spectroscopy). […] The total weight was exactly determined again. The 50 ml test tubes were filled according to Table 1 below.
# [2] = Precipitation test of zinc sources with two-fold molar excess of phytic acid, soluble Zn by FAAS; type: physicochemical; conditions: for Soluble Zn(II) after subjecting complexed or chelated Zn(II) to a two-fold molar excess of phytic acid: one day at ambient temperature
# Description: The following 3 concentrations of the final metal concentration were tested, i.e. high (H) at 25 mmol/kg, medium (M) at 5 mmol/kg, and low (L) at 0.5 mmol/kg. For each concentration and pH a separate phytic acid stock solution was prepared by diluting the calculated amount of phytic acid with de-mineralized water, setting the pH with diluted NH4OH solutions, and filling up with demineralized water up to the calculated amount. […] The pH was not adjusted any further. Then an equal number of 0.0125 mol/kg solutions were prepared by diluting the above solutions with demineralized water. […] On all 4 zinc-containing and 3 copper-containing solutions in total 6 precipitation tests were carried out, i.e. at levels H, M, and L and for each level at pH=4 and at pH=6. These tests were marked H4, H6, M4, M6, L4, and L6, respectively. In total 42 samples were obtained in this way. After standing for one day the precipitate was removed and the mother liquor was analyzed for its zinc or copper content by FAAS (Flame Atomic Absorption Spectroscopy). […] The total weight was exactly determined again. The 50 ml test tubes were filled according to Table 1 below.
# [3] = without the presence of phytate; result in words
# Description: A small excess of 2% of the complexing or chelating agent intake was used to prepare the metal-containing solutions. This ensures a complete complexation or chelation of the metal ions. The mixture was dissolved in part of the demineralized water. The pH was adjusted in order to reach a pH value between approximately 4 and 5. All solutions were filled up with demineralized water to 400 g.
# [4] = H4: pH 4, metal 25 mmol/kg, phytic acid 50 mmol/kg
# [5] = H6: pH 6, metal 25 mmol/kg, phytic acid 50 mmol/kg
# [6] = L4: pH 4, metal 0.5 mmol/kg, phytic acid 1 mmol/kg
# [7] = L6: pH 6, metal 0.5 mmol/kg, phytic acid 1 mmol/kg
# [8] = M4: pH 4, metal 5 mmol/kg, phytic acid 10 mmol/kg
# [9] = M6: pH 6, metal 5 mmol/kg, phytic acid 10 mmol/kg
compound,measurement,setting,value
O=S(=O)([O-])[O-].[Cu+2] [CuSO4],Soluble Cu(II) after subjecting complexed or chelated Cu(II) to a two-fold molar excess of phytic acid,[1]; [4],64* % (mol/mol)
same,Soluble Cu(II) after subjecting complexed or chelated Cu(II) to a two-fold molar excess of phytic acid,[1]; [5],26* % (mol/mol)
same,Soluble Cu(II) after subjecting complexed or chelated Cu(II) to a two-fold molar excess of phytic acid,[1]; [6],97 % (mol/mol)
same,Soluble Cu(II) after subjecting complexed or chelated Cu(II) to a two-fold molar excess of phytic acid,[1]; [7],80 % (mol/mol)
same,Soluble Cu(II) after subjecting complexed or chelated Cu(II) to a two-fold molar excess of phytic acid,[1]; [8],97* % (mol/mol)
same,Soluble Cu(II) after subjecting complexed or chelated Cu(II) to a two-fold molar excess of phytic acid,[1]; [9],36* % (mol/mol)
CSCC[C@H](N)C(=O)[O-].CSCC[C@H](N)C(=O)[O-].[Zn+2] [Zn(Methionine)2],Soluble Zn(II) after subjecting complexed or chelated Zn(II) to a two-fold molar excess of phytic acid,[2]; [4],21* % (mol/mol)
same,Soluble Zn(II) after subjecting complexed or chelated Zn(II) to a two-fold molar excess of phytic acid,[2]; [5],32* % (mol/mol)
same,Soluble Zn(II) after subjecting complexed or chelated Zn(II) to a two-fold molar excess of phytic acid,[2]; [6],99 % (mol/mol)
same,Soluble Zn(II) after subjecting complexed or chelated Zn(II) to a two-fold molar excess of phytic acid,[2]; [7],63 % (mol/mol)
same,Soluble Zn(II) after subjecting complexed or chelated Zn(II) to a two-fold molar excess of phytic acid,[2]; [8],55* % (mol/mol)
same,Soluble Zn(II) after subjecting complexed or chelated Zn(II) to a two-fold molar excess of phytic acid,[2]; [9],13* % (mol/mol)
same,Appearance (clear solution or precipitate) of zinc source combined with phytic acid,"[2]; levels H, M, L, result in words",immediately a precipitate was formed
CSCC[C@H](N)C(=O)O.[Cu] [copper methionine],Solubility in water,[3],insoluble in water

# — patent US11208376B2, “Use of a metal supplement in animal feed” (Nouryon Chemicals International B.V., priority 2009, dated 2021)
